# Results published in US12448388B2, “PRMT5 inhibitors and uses thereof” (Gilead Sciences, Inc., priority 2023, dated 2025).
# Tested on: HCT116 MTAP-deleted cell lines
# Assay: Cell viability assay (CellTiter-Glo, 7 days), HCT116 MTAP-deleted
# Format: cell-based
# Details: Homo sapiens, HCT-116; cell viability, HCT116 MTAP-deleted; class symbols; read-out: CC50
# Experimental: Control compounds were analyzed in parallel each time for quality control. In Brief, on Day -1, a serial dilution of stock compounds in DMSO was performed using BioMek liquid handlers and dispensed using Echo acoustic dispenser into 384 well plates. Both tool compounds and sample compounds were spotted in the same plate for a dose response of PRMT5 inhibitors. Compound plates were stored as frozen until the cells were ready for seeding. […] After equilibrating the plate in room temperature, the cells were incubated for 7 days inside the sealed incubator set at 37° C. with 90% humidity and 5% CO2. On Day 7, the viability of cells was measured using a CTG assay kit (CellTitre-Glo;Promega cat no. G7573). Shortly, 40 μl per well of luminescent cell viability assay reagent were dispensed using EL460 liquid dispenser 5 μl cassette. CTG luminescence signal was measured using an EnVision plate reader (PerkinElmer) in accordance with manufacturer's instruction. […] Selectivity with * is artificially high due to limited solubility of the compound hampering accurate measurement of WT CC50.
row,SMILES,CC50 [nM]
1,"Nc1nc2ccc(C(=O)N3CCO[C@@H]4Cc5cc(C(F)(F)F)ccc5[C@@H]43)cc2n2cncc12 (racemic) [Ff-33, Racemic (4-aminoimidazo[1,5-a]quinoxalin-8-yl)((4aS,9aR)-7-(trifluoromethyl)-2,3,9,9a-tetrahydroindeno[2,1-b][1,4]oxazin-4(4aH)-yl)methanone]",100 to 1000
2,"Nc1nc2cc(F)c(C(=O)N3CCO[C@@H]4Cc5cc(C(F)(F)F)ccc5[C@@H]43)cc2n2cncc12 (racemic) [Ff-34, Racemic (4-amino-7-fluoroimidazo[1,5-a]quinoxalin-8-yl)((4aS,9aR)-7-(trifluoromethyl)-2,3,9,9a-tetrahydroindeno[2,1-b][1,4]oxazin-4(4aH)-yl)methanone]",< 100
3,"Nc1nc2cc(Cl)c(C(=O)N3CCO[C@@H]4Cc5cc(C(F)(F)F)ccc5[C@@H]43)cc2n2cncc12 (racemic) [Ff-35, Racemic (4-amino-7-chloroimidazo[1,5-a]quinoxalin-8-yl)((4aS,9aR)-7-(trifluoromethyl)-2,3,9,9a-tetrahydroindeno[2,1-b][1,4]oxazin-4(4aH)-yl)methanone]",< 100
4,"Nc1nc2cc(F)c(C(=O)N3CCO[C@@H]4Cc5ccccc5[C@@H]43)cc2n2cncc12 (racemic) [Ff-36, Racemic(4-amino-7-fluoroimidazo[1,5-a]quinoxalin-8-yl)((4aS,9aR)-2,3,9,9a-tetrahydroindeno[2,1-b][1,4]oxazin-4(4aH)-yl)methanone]",100 to 1000
5,"Nc1nc2ccc(C(=O)N3CCO[C@@H]4Cc5cc(Br)ccc5[C@@H]43)cc2n2cncc12 (racemic) [Ff-37, Racemic (4-aminoimidazo[1,5-a]quinoxalin-8-yl)((4aS,9aR)-7-bromo-2,3,9,9a-tetrahydroindeno[2,1-b][1,4]oxazin-4(4aH)-yl)methanone]",100 to 1000
6,"C[C@@H]1OC[C@@H](N(C)C(=O)c2ccc3nc(N)c4cncn4c3c2)c2ccc(C(F)(F)F)cc21 (racemic) [Ff-41, Trans-4-amino-N-methyl-N-(trans-1-methyl-7-(trifluoromethyl)isochroman-4-yl)imidazo[1,5-a]quinoxaline-8-carboxamide]",< 100
7,"C[C@H]1OC[C@@H](N(C)C(=O)c2ccc3nc(N)c4cncn4c3c2)c2ccc(C(F)(F)F)cc21 (racemic) [Ff-42, Cis-4-amino-N-methyl-N-(1-methyl-7-(trifluoromethyl)isochroman-4-yl)imidazo[1,5-a]quinoxaline-8-carboxamide]",< 100
8,"C[C@H]1CN(C(=O)c2cc3c(cc2F)nc(N)c2cncn23)[C@H]2c3ccccc3C[C@H]2O1 (racemic) [Ff-55, Rac-(4-amino-7-fluoroimidazo[1,5-a]quinoxalin-8-yl)((2S,4aS,9aR)-2-methyl-2,3,9,9a-tetrahydroindeno[2,1-b][1,4]oxazin-4(4aH)-yl)methanone]",< 100
9,"C[C@@H]1CN(C(=O)c2cc3c(cc2F)nc(N)c2cncn23)[C@H]2c3ccccc3C[C@H]2O1 (racemic) [Ff-56, Rac-(4-amino-7-fluoroimidazo[1,5-a]quinoxalin-8-yl)((2R,4aS,9aR)-2-methyl-2,3,9,9a-tetrahydroindeno[2,1-b][1,4]oxazin-4(4aH)-yl)methanone]",100 to 1000
10,"COc1ccc2c(c1)CO[C@H]1CCN(C(=O)c3cc4c(cc3F)nc(N)c3cncn34)[C@@H]21 (racemic) [Ff-67, Rac-(4-amino-7-fluoroimidazo[1,5-a]quinoxalin-8-yl)((3aS,9bS)-7-methoxy-3,3a,5,9b-tetrahydroisochromeno[4,3-b]pyrrol-1(2H)-yl)methanone]",100 to 1000
11,"Nc1nc2ccc(C(=O)N3CC[C@H]4C[C@@H]3c3ccc(C(F)(F)F)cc34)cc2n2cncc12 (racemic) [Ff-74, (Rac)-(4-aminoimidazo[1,5-a]quinoxalin-8-yl)(7-(trifluoromethyl)-1,3,4,5-tetrahydro-2H-1,5-methanobenzo[c]azepin-2-yl)methanone]",100 to 1000
